# Data published in PMC12693701, “Glucosinolate-Derived Metabolites from Barbarea vulgaris (Brassicaceae): Evaluation of Antimicrobial, Antioxidant, and Anti-Inflammatory Potentials” (Molecules, 2025).
# Read-outs that look alike come from different tables or passages of the source.
# What was measured:
# C. albicans ATCC 10231 = experiment: Microdilution MIC/MMC with resazurin; format: cell-based, Candida albicans; conditions: for MIC: Candida albicans, ATCC10231
# Description: (§1) The antimicrobial activity was evaluated against 15 microorganisms. This included 11 bacterial strains: four standard strains (Staphylococcus aureus ATCC 25923, Bacillus subtilis ATCC 6633, Bacillus pumilus NCTC 8241, and Escherichia coli ATCC 25922) and six clinical or environmental isolates (Staphylococcus aureus, Escherichia coli, Bacillus cereus, Proteus mirabilis, Salmonella enterica, and Klebsiella pneumoniae). One probiotic strain, Bifidobacterium animalis subsp. lactis was tested. In addition, four fungal strains, Candida albicans ATCC 10231, Trichoderma viride ATCC 13233, Aspergillus flavus ATCC 9170, and Fusarium solani ATCC 11712 were tested. The bacterial strains were kept in glycerol stock at −80 °C and the fungal strains in paraffin oil stock at 4 °C.
# (§2) Bacterial and yeast suspensions were prepared using the direct colony method, as previously described by Andrews. The turbidity of the initial suspensions was adjusted to match the 0.5 McFarland standard using a densitometer (Biosan, Riga, Latvia), corresponding to approximately 10^8 colony-forming units (CFU)/mL for bacterial cells and 10^6 CFU/mL for yeast cells. Subsequently, 1:100 dilutions of the initial suspensions were prepared in sterile 0.85% saline. Fungal spore suspensions were obtained by gently harvesting spores from agar slopes containing mature mycelial growth. The collected spore suspensions were then diluted 1:1000 in sterile 0.85% saline prior to use.
# (§3) Antimicrobial activity was evaluated by determining the minimum inhibitory concentration (MIC) and minimum microbicidal concentration (MMC) using the microdilution plate method with resazurin as an indicator [28]. In the 96-well plates, 100 μL of Mueller–Hinton broth (Torlak, Belgrade, Serbia) for bacterial testing and Sabouraud broth (Torlak, Belgrade, Serbia) for fungal testing were dispensed into each well. The compounds under investigation were initially dissolved in a 10% dimethyl sulfoxide (DMSO) solution, followed by dilution in sterile distilled water, resulting in a working compound solution containing 1% DMSO. A 100 μL aliquot of the stock solution of the tested compound was added to the first row, and twofold serial dilutions were then carried out using a multichannel pipette. The resulting concentration range was from 5 to 0.039 mg/mL. The inoculated microtiter plates were incubated at 37 °C for 24 h for bacteria, at 28 °C for 48 h for yeasts, and at 28 °C for 72 h for molds.
# (§4) Each test also included growth control and sterility control. All tests were conducted in duplicate. MIC was defined as the lowest concentration of tested compounds that prevented resazurin color change from blue to pink. For molds, MIC values of the tested compound were determined as the lowest concentration that inhibited visible mycelia growth. MMC was determined by inoculation of the nutrient agar medium by plating […] of samples from wells, where no indicator color change was recorded. At the end of the incubation period, the lowest concentration with no growth (no colony) was defined as MMC.
# (§5) Doxycycline, ampicillin and amphotericin B (- Sigma-Aldrich, St. Louis, MO, USA) and ketoconazole (Hemofarm A.D., Vršac, Serbia) were dissolved in a nutrient liquid medium. Doxycycline is a broad-spectrum antibiotic effective against both aerobic and anaerobic Gram-positive and Gram-negative bacteria. Ampicillin, a beta-lactam antibiotic, primarily targets Gram-positive bacteria but also some Gram-negative strains. Amphotericin B is an antifungal drug often used for serious systemic fungal infections and is one of the effective treatments for fungal infections caused by Aspergillus sp. Ketoconazole is an antifungal agent used to inhibit the growth of Candida species.
# T. viride ATCC 13233 = experiment: Microdilution MIC/MMC; format: cell-based, Trichoderma viride
# Description: as §1, §2, §3, §4, §5
# [1] = biological target: T1, Type I-B soybean lipoxygenase (Glycine max, UniProt P08170); experiment: LOX inhibition assay; format: biochemical; conditions: for inhibition at 100 µM: read-out: Percentage of LOX Inhibition
# T1 sequence (P08170 1-839): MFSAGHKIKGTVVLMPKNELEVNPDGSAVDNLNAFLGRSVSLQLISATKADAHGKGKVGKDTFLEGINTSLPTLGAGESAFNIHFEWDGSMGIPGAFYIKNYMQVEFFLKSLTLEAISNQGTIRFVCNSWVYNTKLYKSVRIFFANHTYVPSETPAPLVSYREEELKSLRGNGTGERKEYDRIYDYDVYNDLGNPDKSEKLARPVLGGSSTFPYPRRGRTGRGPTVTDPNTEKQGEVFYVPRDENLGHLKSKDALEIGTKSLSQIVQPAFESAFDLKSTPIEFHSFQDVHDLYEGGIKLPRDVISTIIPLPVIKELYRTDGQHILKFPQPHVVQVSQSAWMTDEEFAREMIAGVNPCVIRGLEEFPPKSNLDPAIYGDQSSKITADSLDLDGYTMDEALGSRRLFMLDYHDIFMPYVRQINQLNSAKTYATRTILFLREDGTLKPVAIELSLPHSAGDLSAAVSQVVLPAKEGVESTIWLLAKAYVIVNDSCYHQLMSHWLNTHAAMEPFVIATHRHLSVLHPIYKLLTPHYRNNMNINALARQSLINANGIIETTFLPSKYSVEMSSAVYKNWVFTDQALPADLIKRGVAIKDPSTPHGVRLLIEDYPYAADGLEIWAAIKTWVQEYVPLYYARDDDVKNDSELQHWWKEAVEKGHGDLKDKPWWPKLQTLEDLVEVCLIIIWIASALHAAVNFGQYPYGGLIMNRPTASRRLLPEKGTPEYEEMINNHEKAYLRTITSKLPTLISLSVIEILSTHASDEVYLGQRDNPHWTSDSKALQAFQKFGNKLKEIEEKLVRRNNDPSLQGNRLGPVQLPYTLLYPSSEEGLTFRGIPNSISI
# Description: Type I-B soybean lipoxygenase is a commonly used enzyme for studying the anti-inflammatory properties of various compounds [19]. The lipoxygenase (LOX) inhibition assay measures the enzyme’s ability to convert sodium linoleate to 13-hydroperoxylinoleic acid. The inhibition of the enzyme by the investigated compounds was determined by measuring the absorbance at 234 nm for each prepared sample. Specifically, the test compound, Tris buffer, an enzyme solution (5 × 10^3 units/mL in saline), and sodium linoleate (3 mM in Tris buffer, pH 9), were added to a UV cuvette, and the absorbance was recorded. […] All measurements were performed in triplicate.
# [2] = DPPH radical scavenging assay; conditions: mean ± SD
# Description: The DPPH assay was used to assess the ability of the tested compounds to scavenge reactive radical species. Stock solutions of the investigated compounds were prepared in DMSO and then diluted with methanol to a final volume of 1000 µL. An equal volume of a 50 µM DPPH solution in methanol was then added to the prepared mixture. The final concentrations of the test compounds were 25, 50, and 100 µM. After thorough mixing, the samples were incubated in the dark at room temperature for 20 to 60 min. Methanol was used as a blank, and absorbance was measured at 517 nm after incubation. All measurements were performed in triplicate.
# [3] = C. albicans ATCC 10231, compounds 1–8
# [4] = C. albicans ATCC 10231, compounds 1–8, read-out: MIC
# [5] = T. viride ATCC 13233, compounds 1–8
# [6] = Trichoderma viride, ATCC13233, T. viride ATCC 13233, compounds 1–8, read-out: MIC
SMILES,MMC (C. albicans ATCC 10231; [3]),MIC (C. albicans ATCC 10231; [4]),MMC (T. viride ATCC 13233; [5]),MIC (T. viride ATCC 13233; [6]),"inhibition at 100 µM ([1]; 100 µM, mean ± SD)","DPPH Scavenging Ability ([2]; 25 µM, 20 min)","DPPH Scavenging Ability ([2]; 25 µM, 60 min)","DPPH Scavenging Ability ([2]; 50 µM, 20 min)","DPPH Scavenging Ability ([2]; 50 µM, 60 min)","DPPH Scavenging Ability ([2]; 100 µM, 20 min)","DPPH Scavenging Ability ([2]; 100 µM, 60 min)",IC50 ([1]; mean ± SD),MIC (C. albicans ATCC 10231),MIC (T. viride ATCC 13233; [5]),"MIC (T. viride ATCC 13233; Trichoderma viride, ATCC13233)",inhibition at 100 µM [1]
"O=C1NCC(c2ccccc2)O1 (stereo not drawn) [Compound 7, 5-Phenyl-1,3-oxazolidin-2-one]",5 mg/mL,2500 µg/mL,2.5 mg/mL,1250 µg/mL,18.3 ± 0.3%,1.1 ± 0.4%,0.9 ± 0.7%,1.5 ± 0.9%,1.5 ± 0.8%,2.6 ± 1.0%,2.7 ± 1.5%,,,,,
"CSC(=S)NCCc1ccc(O)cc1 [Compound 2, methyl-4-hydroxyphenylethyl dithiocarbamate]",>5 mg/mL,2500 µg/mL,0.312 mg/mL,156 µg/mL,55.5 ± 0.1%,11.9 ± 0.7%,12.0 ± 0.4%,15.6 ± 0.3%,15.7 ± 1.4%,24.9 ± 1.1%,25.2 ± 1.6%,97.4 ± 1.3 µM,,,,
"S=C1NCC(c2ccccc2)O1 (racemic) [Compound 4, rac-5-Phenyl-1,3-oxazolidine-2-thione]",5 mg/mL,5000 µg/mL,2.5 mg/mL,2500 µg/mL,90.5 ± 0.1%,1.2 ± 0.7%,1.3 ± 0.5%,1.7 ± 0.8%,2.0 ± 0.9%,3.8 ± 1.2%,3.5 ± 1.7%,61.6 ± 0.6 µM,,,,
"O=C(O)C1CSC(=S)N1 (stereo not drawn) [Compound 3, 2-Thioxothiazolidine-4-carboxylic Acid]",1.25 mg/mL,312 µg/mL,5 mg/mL,2500 µg/mL,23.8 ± 0.8%,1.0 ± 0.3%,1.1 ± 0.5%,1.9 ± 0.8%,2.1 ± 1.1%,7.8 ± 1.8%,7.9 ± 1.7%,,,,,
"O=C1NCC(c2ccccc2)S1 (stereo not drawn) [Compound 6, 5-phenyl-1,3-thiazolidin-2-one]",>5 mg/mL,> 5000 µg/mL,>5 mg/mL,> 5000 µg/mL,34.6 ± 0.4%,3.1 ± 0.6%,3.0 ± 0.7%,4.2 ± 0.8%,4.6 ± 0.6%,5.9 ± 0.9%,5.8 ± 1.4%,,,,,
"S=C1NC[C@H](c2ccccc2)O1 [Compound 5, (S)-5-phenyl-1,3-oxazolidine-2-thione]",>5 mg/mL,5000 µg/mL,5 mg/mL,5000 µg/mL,40 ± 0.5%,7.0 ± 0.9%,8.4 ± 0.5%,14.8 ± 0.7%,16.4 ± 0.4%,21.6 ± 1.2%,22.4 ± 0.7%,123 ± 1.5 µM,,,,
"Oc1ccc(CCN=C=S)cc1 [Compound 8, 2-(4-hydroxyphenyl)ethyl isothiocyanate]",2.5 mg/mL,,<0.039 mg/mL,,,4.4 ± 1.0%,4.7 ± 1.2%,7.3 ± 1.3%,8.1 ± 1.3%,13.1 ± 0.7%,14.2 ± 0.9%,,2500 µg/mL,<39 µg/mL,< 39 µg/mL,21.2 ± 0.3%
"CSC(=S)NCCc1ccccc1 [Compound 1, Methyl phenethylcarbamodithioate]",>5 mg/mL,1250 µg/mL,1.25 mg/mL,625 µg/mL,47.5 ± 1.5%,1.6 ± 1.2%,1.8 ± 1.5%,2.5 ± 1.1%,2.4 ± 1.4%,2.6 ± 1.2%,2.9 ± 1.7%,125.5 ± 0.4 µM,,,,
